Results as given in US8575091B1, “Amylin analogues and pharmaceutical compositions thereof” (Novo Nordisk A/S, priority 2012, dated 2013).
Numbered stars: 1 amine (or outer) side, 2 acyl side, 3 side chain; on linkers, the order of the positions; unused ones are H or OH. Bridge positions count the residues as written; N and C are the ends. Side chains are listed from the residue outwards. Peptide text beside a SMILES is read from it. * marks the point of attachment. C20 diacid = O=C(O)CCCCCCCCCCCCCCCCCCC(=O)*; γGlu = O=C(O)[C@H](CCC(=O)[*:2])N[*:1]; AEEA = NCCOCCOCC(=O)O

Columns and labels:
human amylin receptor = target: T1, human amylin receptor (Homo sapiens, UniProt O60896+P30988); test: Assay (V) binding to the human amylin receptor (SPA, 125I-rat amylin)
T1 construct: expressed in transfected cells
T1 sequence (P30988 25-474): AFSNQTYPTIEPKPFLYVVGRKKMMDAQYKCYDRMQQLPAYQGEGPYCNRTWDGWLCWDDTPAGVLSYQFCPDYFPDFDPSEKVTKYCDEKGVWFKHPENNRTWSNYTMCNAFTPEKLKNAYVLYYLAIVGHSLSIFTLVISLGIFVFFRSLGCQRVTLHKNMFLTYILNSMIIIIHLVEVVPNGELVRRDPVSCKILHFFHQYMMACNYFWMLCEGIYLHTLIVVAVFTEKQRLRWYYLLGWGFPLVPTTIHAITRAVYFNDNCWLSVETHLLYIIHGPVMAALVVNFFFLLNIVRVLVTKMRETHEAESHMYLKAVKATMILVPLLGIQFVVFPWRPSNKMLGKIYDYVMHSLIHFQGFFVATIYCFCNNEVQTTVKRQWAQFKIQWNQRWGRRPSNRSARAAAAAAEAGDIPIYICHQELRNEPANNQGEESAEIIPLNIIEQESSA
T1 sequence (O60896 24-148 partner): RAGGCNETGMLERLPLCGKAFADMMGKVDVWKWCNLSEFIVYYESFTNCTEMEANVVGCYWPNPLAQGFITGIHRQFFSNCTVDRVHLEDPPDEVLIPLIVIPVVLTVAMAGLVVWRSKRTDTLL
Experimental: The binding assay was performed using scintillation proximity assay (SPA) beads (RPNQ0001) from PerkinElmer and cell membranes from the Amylin 3(a)/CRE-luc cells (as described in Assay (II)) were used. Membranes were prepared in the following way; the cells were rinsed with PBS and incubated with Versene for approximately 5 min before harvesting. The cells were flushed with PBS and the cell-suspension was centrifuged for 5 min at 1000 rpm. […] The resulting pellet was resuspended in buffer 2 and protein concentration was measured (BCA protein Assay, Pierce). The homogenate was kept cold during the whole procedure. The membranes were kept at −80° C. until use. The assay was performed in a 384 well Optiplate (PerkinElmer) in a total volume of 40 ul. Membranes were mixed with SPA beads. Final concentration of membranes 35 ng/μL final and SPA beads was 0.05 mg/well. Test-compounds were dissolved in DMSO and further diluted in assay buffer (50 mM Hepes, pH 7.4, 1 mM CaCl2, 5 mM MgCl2, 0.1% OA and 0.02% Tween20). […] Samples were analyzed on TopCounter™ (Packard). The IC50 was calculated using (one site binding competition analysis) GraphPad Prism5 as a measure of receptor affinity.

[1] = target: T2, human amylin receptor (amylin 3(a) receptor: human calcitonin receptor + RAMP-3) (Homo sapiens, UniProt O60896+P30988); test: Assay (II)a functional assay, human amylin receptor (CRE luciferase, BHK cells); type: cell-based; conditions: Table 6; human functional selectivity (hCTR EC50 / hAmylin-R EC50)
T2 construct: expressed in transfected cells
T2 sequence (P30988 25-474): T1 sequence (P30988 25-474)
T2 sequence (O60896 24-148 partner): T1 sequence (O60896 24-148 partner)

[2] = human binding ratio, included for comparison
[3] = Table 7b, human calcitonin receptor binding IC50 divided by human amylin receptor binding IC50
[4] = Table 7c, human calcitonin receptor binding IC50 divided by human amylin receptor binding IC50

| Ratio hCT/hAmylin binding (human amylin receptor; [2]) | Ratio hCT/hAmylin funct. [1] | Ratio hCT/hAmylin binding (human amylin receptor; [3]) | Ratio hCT/hAmylin binding (human amylin receptor; [4]) | IC50 (human amylin receptor; human amylin receptor membranes, SPA, read-out: hAmylin-R bind IC50) | Compound |
| --- | --- | --- | --- | --- | --- |
| 0.5 | 1.1 | – | – | – | CC[C@H](C)[C@H](NC(=O)[C@H](C)NC(=O)CNC(=O)[C@H](Cc1ccccc1)NC(=O)[C@H](CC(N)=O)NC(=O)[C@@H]1CCCN1C(=O)[C@H](CO)NC(=O)[C@H](CO)NC(=O)[C@H](Cc1c[nH]cn1)NC(=O)[C@H](CCCNC(=N)N)NC(=O)[C@H](CC(C)C)NC(=O)[C@H](Cc1ccccc1)NC(=O)[C@H](CCC(=O)O)NC(=O)[C@H](C)NC(=O)[C@H](CC(C)C)NC(=O)[C@H](CCCNC(=N)N)NC(=O)[C@H](CCC(N)=O)NC(=O)[C@@H](NC(=O)[C@H](C)NC(=O)[C@@H]1CSSC[C@H](NC(=O)[C@H](CCCCN)NC(=O)CC[C@H](NC(=O)CCCCCCCCCCCCCCCCCCC(=O)O)C(=O)O)C(=O)N[C@@H](CC(N)=O)C(=O)N[C@@H]([C@@H](C)O)C(=O)N[C@@H](C)C(=O)N[C@@H]([C@@H](C)O)C(=O)N1)[C@@H](C)O)C(=O)N1CCC[C@H]1C(=O)N[C@@H](CO)C(=O)N[C@@H](CO)C(=O)N[C@H](C(=O)N[C@@H](CC(N)=O)C(=O)N[C@H](C(=O)NCC(=O)N[C@@H](CO)C(=O)N[C@@H](CC(N)=O)C(=O)N[C@H](C(=O)N1CCC[C@H]1C(N)=O)[C@@H](C)O)C(C)C)[C@@H](C)O [Example 8] ({C20 diacid-γGlu}-KCNTATCATQRLAEFLRHSSPNFGAIPSSTNVGSNTP-NH2; disulfide 2-7) |
| 80.0 | – | 80.0 | 80.0 | – | CC[C@H](C)[C@H](NC(=O)[C@H](C)NC(=O)CNC(=O)[C@H](Cc1ccccc1)NC(=O)[C@H](CC(N)=O)NC(=O)[C@@H]1CCCN1C(=O)[C@H](CO)NC(=O)[C@H](CO)NC(=O)[C@H](Cc1c[nH]cn1)NC(=O)[C@H](CCCNC(=N)N)NC(=O)[C@H](CC(C)C)NC(=O)[C@H](Cc1ccccc1)NC(=O)[C@H](CC(N)=O)NC(=O)[C@H](C)NC(=O)[C@H](CC(C)C)NC(=O)[C@H](CCCNC(=N)N)NC(=O)[C@H](CCC(N)=O)NC(=O)[C@@H](NC(=O)[C@H](C)NC(=O)[C@@H]1CSSC[C@H](NC(=O)[C@@H](N)CCCCNC(=O)COCCOCCNC(=O)CC[C@H](NC(=O)CCCCCCCCCCCCCCCCCCC(=O)O)C(=O)O)C(=O)N[C@@H](CC(N)=O)C(=O)N[C@@H]([C@@H](C)O)C(=O)N[C@@H](C)C(=O)N[C@@H]([C@@H](C)O)C(=O)N1)[C@@H](C)O)C(=O)N1CCC[C@H]1C(=O)N[C@@H](CO)C(=O)N[C@@H](CO)C(=O)N[C@H](C(=O)N[C@@H](CC(N)=O)C(=O)N[C@H](C(=O)NCC(=O)N[C@@H](Cc1c[nH]cn1)C(=O)N[C@@H](CC(N)=O)C(=O)N[C@H](C(=O)N[C@@H](Cc1ccc(O)cc1)C(N)=O)[C@@H](C)O)C(C)C)[C@@H](C)O [Example 76] (H-K([AEEA-γGlu-C20 diacid])CNTATCATQRLANFLRHSSPNFGAIPSSTNVGHNTY-NH2; disulfide 2-7 (inferred); N-terminus and C-terminus assumed) |
| 9.2 | 4.8 | – | – | – | CC[C@H](C)[C@H](NC(=O)[C@H](C)NC(=O)CNC(=O)[C@H](Cc1ccccc1)NC(=O)[C@H](CC(N)=O)NC(=O)[C@@H]1CCCN1C(=O)[C@H](CO)NC(=O)[C@H](CO)NC(=O)[C@H](Cc1c[nH]cn1)NC(=O)[C@H](CCCNC(=N)N)NC(=O)[C@H](CC(C)C)NC(=O)[C@H](Cc1ccccc1)NC(=O)[C@H](CCC(=O)O)NC(=O)[C@H](C)NC(=O)[C@H](CC(C)C)NC(=O)[C@H](CCCNC(=N)N)NC(=O)[C@H](CCC(N)=O)NC(=O)[C@@H](NC(=O)[C@H](C)NC(=O)[C@@H]1CSSC[C@H](NC(=O)[C@H](CCCCN)NC(=O)CC[C@H](NC(=O)CCCCCCCCCCCCCCCCCCC(=O)O)C(=O)O)C(=O)N[C@@H](CC(N)=O)C(=O)N[C@@H]([C@@H](C)O)C(=O)N[C@@H](C)C(=O)N[C@@H]([C@@H](C)O)C(=O)N1)[C@@H](C)O)C(=O)N1CCC[C@H]1C(=O)N[C@@H](CO)C(=O)N[C@@H](CO)C(=O)N[C@H](C(=O)N[C@@H](CC(N)=O)C(=O)N[C@H](C(=O)NCC(=O)N[C@@H](CO)C(=O)N[C@@H](Cc1c[nH]cn1)C(=O)N[C@H](C(=O)N[C@@H](Cc1ccc(O)cc1)C(N)=O)[C@@H](C)O)C(C)C)[C@@H](C)O [Example 18] ({C20 diacid-γGlu}-KCNTATCATQRLAEFLRHSSPNFGAIPSSTNVGSHTY-NH2; disulfide 2-7) |
| 29.0 | – | 29.0 | 29.0 | – | CC[C@H](C)[C@H](NC(=O)[C@H](C)NC(=O)CNC(=O)[C@H](Cc1ccccc1)NC(=O)[C@H](CC(N)=O)NC(=O)[C@@H]1CCCN1C(=O)[C@H](CO)NC(=O)[C@H](CO)NC(=O)[C@H](Cc1c[nH]cn1)NC(=O)[C@H](CCCNC(=N)N)NC(=O)[C@H](CC(C)C)NC(=O)[C@H](Cc1ccccc1)NC(=O)[C@H](CC(N)=O)NC(=O)[C@H](C)NC(=O)[C@H](CC(C)C)NC(=O)[C@H](CCCNC(=N)N)NC(=O)[C@H](CCC(N)=O)NC(=O)[C@@H](NC(=O)[C@H](C)NC(=O)[C@@H]1CSSC[C@H](NC(=O)[C@H](CCCCN)NC(=O)CC[C@H](NC(=O)CCCCCCCCCCCCCCCCCCC(=O)O)C(=O)O)C(=O)N[C@@H](CC(N)=O)C(=O)N[C@@H]([C@@H](C)O)C(=O)N[C@@H](C)C(=O)N[C@@H]([C@@H](C)O)C(=O)N1)[C@@H](C)O)C(=O)N1CCC[C@H]1C(=O)N[C@@H](CO)C(=O)N[C@@H](CO)C(=O)N[C@H](C(=O)N[C@@H](CC(N)=O)C(=O)N[C@H](C(=O)NCC(=O)N[C@@H](CCCNC(=N)N)C(=O)N[C@@H](CC(N)=O)C(=O)N[C@H](C(=O)N[C@@H](Cc1ccc(O)cc1)C(N)=O)[C@@H](C)O)C(C)C)[C@@H](C)O [Example 39] ({C20 diacid-γGlu}-KCNTATCATQRLANFLRHSSPNFGAIPSSTNVGRNTY-NH2; disulfide 2-7) |
| – | – | – | – | 0.249 nM | CC[C@H](C)[C@H](NC(=O)[C@H](C)NC(=O)CNC(=O)[C@H](Cc1ccccc1)NC(=O)[C@H](CC(N)=O)NC(=O)[C@@H]1CCCN1C(=O)[C@H](CO)NC(=O)[C@H](CO)NC(=O)[C@H](Cc1c[nH]cn1)NC(=O)[C@H](CCCNC(=N)N)NC(=O)[C@H](CC(C)C)NC(=O)[C@H](Cc1ccccc1)NC(=O)[C@H](CC(N)=O)NC(=O)[C@H](C)NC(=O)[C@H](CC(C)C)NC(=O)[C@H](CCCNC(=N)N)NC(=O)[C@H](CCC(N)=O)NC(=O)[C@@H](NC(=O)[C@H](C)NC(=O)[C@@H]1CSSC[C@H](NC(=O)[C@@H](N)CCCCNC(=O)COCCOCCNC(=O)CC[C@H](NC(=O)CCCCCCCCCCCCCCCCCCC(=O)O)C(=O)O)C(=O)N[C@@H](CC(N)=O)C(=O)N[C@@H]([C@@H](C)O)C(=O)N[C@@H](C)C(=O)N[C@@H]([C@@H](C)O)C(=O)N1)[C@@H](C)O)C(=O)N1CCC[C@H]1C(=O)N[C@@H](CO)C(=O)N[C@@H](CO)C(=O)N[C@H](C(=O)N[C@@H](CC(N)=O)C(=O)N[C@H](C(=O)NCC(=O)N[C@@H](CO)C(=O)N[C@@H](CCCNC(=N)N)C(=O)N[C@H](C(=O)N[C@@H](Cc1ccc(O)cc1)C(N)=O)[C@@H](C)O)C(C)C)[C@@H](C)O [Example 38] |
| 63.0 | – | 63.0 | 63.0 | – | CC[C@H](C)[C@H](NC(=O)[C@H](C)NC(=O)CNC(=O)[C@H](Cc1ccccc1)NC(=O)[C@H](CC(N)=O)NC(=O)[C@@H]1CCCN1C(=O)[C@H](CO)NC(=O)[C@H](CO)NC(=O)[C@H](Cc1c[nH]cn1)NC(=O)[C@H](CCCNC(=N)N)NC(=O)[C@H](CC(C)C)NC(=O)[C@H](Cc1ccccc1)NC(=O)[C@H](Cc1c[nH]cn1)NC(=O)[C@H](C)NC(=O)[C@H](CC(C)C)NC(=O)[C@H](CCCNC(=N)N)NC(=O)[C@H](CCC(N)=O)NC(=O)[C@@H](NC(=O)[C@H](C)NC(=O)[C@@H]1CSSC[C@H](NC(=O)[C@@H](N)CCCCNC(=O)CC[C@H](NC(=O)CCCCCCCCCCCCCCCCCCC(=O)O)C(=O)O)C(=O)N[C@@H](CC(N)=O)C(=O)N[C@@H]([C@@H](C)O)C(=O)N[C@@H](C)C(=O)N[C@@H]([C@@H](C)O)C(=O)N1)[C@@H](C)O)C(=O)N1CCC[C@H]1C(=O)N[C@@H](CO)C(=O)N[C@@H](CO)C(=O)N[C@H](C(=O)N1CCC[C@H]1C(=O)N[C@H](C(=O)NCC(=O)N[C@@H](CO)C(=O)N[C@@H](CC(N)=O)C(=O)N[C@H](C(=O)N[C@@H](Cc1ccc(O)cc1)C(N)=O)[C@@H](C)O)C(C)C)[C@@H](C)O [Example 62] (H-K([γGlu-C20 diacid])CNTATCATQRLAHFLRHSSPNFGAIPSSTPVGSNTY-NH2; disulfide 2-7; N-terminus assumed) |
